Assay results taken from BigSolDB 2.1.

O=C(O)CC(S)C(=O)O (stereo not drawn)
solubility (mole fraction)
Details	in acetone	in acetonitrile	in ethanol	in ethyl acetate	in isopropanol	in methanol	in n-butanol
278.15 K	0.133	0.0114	0.138	0.0454	0.1	0.117	0.0909
283.15 K	0.142	0.0159	0.154	0.0482	0.112	0.136	0.105
288.15 K	0.149	0.0212	0.169	0.0515	0.126	0.157	0.118
293.15 K	0.159	0.0296	0.186	0.0547	0.141	0.178	0.134
298.15 K	0.168	0.0392	0.205	0.0595	0.156	0.203	0.153
303.15 K	0.178	0.0513	0.224	0.0634	0.174	0.228	0.172
308.15 K	0.19	0.0656	0.244	0.068	0.192	0.256	0.192
313.15 K	0.202	0.0853	0.265	0.0732	0.212	0.285	0.213
318.15 K	0.213	0.108	0.287	0.0787	0.233	0.314	0.236
323.15 K	0.226	0.135	0.31	0.0849	0.256	0.345	0.261
328.15 K	0.24	0.168	0.335	0.0915	0.28	0.379	0.286
333.15 K	–	0.206	0.361	0.0991	0.305	0.412	0.313
